Patent publication US11053226B2, “KRAS G12C inhibitors and methods of using the same” (Amgen Inc., priority 2018, dated 2021)
Like-named read-outs stand apart in the source and are kept apart here.

What was measured:
[1] = test system: Phosphorylation of ERK1/2 in A549 cells; assay: Phospho-ERK1/2 MSD Assay (A549); assay type: cell-based; conditions: Homo sapiens
[2] = test system: Phosphorylation of ERK1/2 in MIA PaCa-2 cells; assay: Phospho-ERK1/2 MSD Assay; assay type: cell-based; conditions: MiaPaCa-2 cells
[3] = molecular target: GDP-bound KRAS protein (aa 1-169), containing both G12C and C118A amino acid substitutions (Homo sapiens (Human), UniProt P01116, C118A/G12C); assay: Coupled Nucleotide Exchange Assay; assay type: biochemical
GDP-bound KRAS protein (aa 1-169), containing both G12C and C118A amino acid substitutions, sequence (P01116 other isoform, or with tags, fused parts or gaps G12C/C118A): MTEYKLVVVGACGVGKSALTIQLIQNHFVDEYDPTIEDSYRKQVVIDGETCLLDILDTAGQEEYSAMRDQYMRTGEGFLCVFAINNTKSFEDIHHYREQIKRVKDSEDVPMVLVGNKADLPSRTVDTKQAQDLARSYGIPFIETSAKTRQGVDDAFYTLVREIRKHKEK
Description: For compounds in Table 9, the following assay conditions were employed:
Coupled Nucleotide Exchange Assay:
The assay plates were then read on a PerkinElmer EnVision Multilabel Reader, using AlphaScreen® technology, and data were analyzed using a 4-parameter logistic model to calculate IC50 values.

[4] = A549, 4 h, read-out: pERK IC50 (4 h, A549), 4 h compound treatment
[5] = read-out: Coupled Exchange IC50 (2 h), 2 h compound pre-incubation
[6] = Homo sapiens, MIA PaCa-2, 4 h, read-out: pERK IC50 (4 h, MiaPaCa-2), 4 h compound treatment
[7] = read-out: Coupled Exchange IC50 (20 h), 20 h compound pre-incubation
[8] = read-out: pERK IC50 (4 h), 4 h compound treatment
[9] = Homo sapiens, MIA PaCa-2, read-out: pERK IC50 (4 h), 4 h compound treatment
[10] = read-out: Coupled Exchange IC50 (5 min), 5 min compound pre-incubation

Compound	IC50 [1, 4]	IC50 ([2]; read-out: pERK IC50 (4 h, MiaPaCa-2), 4 h compound treatment)	IC50 [3, 5]	IC50 [2, 6]	IC50 [3, 7]	IC50 [1, 8]	IC50 [2, 9]	IC50 [3, 10]
C=CC(=O)N1CC(NC(=O)Cn2c(C)c(C(=O)N3CCc4ccccc4[C@H]3C)c3cc(Br)cc(C)c32)C1 (stereo in doubt) [Example 2-2, 2-(5-Bromo-2,7-dimethyl-3-(((1R)-1-methyl-3,4-dihydro-2(1H)-isoquinolinyl)carbonyl)-1H-indol-1-yl)-N-(1-(2-propenoyl)-3-azetidinyl)acetamide|2-(5-bromo-2,7-dimethyl-3-(((1S)-1-methyl-3,4-dihydro-2(1H)-isoquinolinyl)carbonyl)-1H-indol-1-yl)-N-(1-(2-propenoyl)-3-azetidinyl)acetamide]	40.9 µM	2.28 µM	0.25 µM	–	–	–	–	–
C=CC(=O)N1CC(NC(=O)Cn2cc(C(=O)NCCc3ccc(Cl)cc3Cl)c3cc(Cl)cc(Cl)c32)C1 [Example 178]	> 100 µM	–	0.63 µM	> 100 µM	0.22 µM	–	–	–
C=CC(=O)N1CC(N(C)C(=O)Cn2c(C)c(C(=O)N3CCN(c4ccc(C(F)(F)F)cn4)CC3)c3cc(Br)ccc32)C1 [Example 10]	43.4 µM	–	0.82 µM	1.58 µM	–	–	–	–
C=CC(=O)N1CC(NC(=O)C(C)(C)n2c(C)c(C(=O)N3CCc4c(cccc4OC)C3)c3cc(Cl)ccc32)C1 [Example 131]	–	–	5.54 µM	–	1.04 µM	50.6 µM	37 µM	–
C=CC(=O)N1CC(NC(=O)Cn2c(C(=O)NCc3ccccc3)cc3cc(Br)ccc32)C1 [Example 164]	–	–	10.7 µM	–	1.11 µM	> 100 µM	> 100 µM	–
C=CC(=O)N1CC(NC(=O)Cn2cc(C(=O)N3CCc4c(cccc4OC)C3)c3cc(Cl)cc(Cl)c32)C1 [Example 69]	> 100 µM	–	0.19 µM	9.39 µM	0.13 µM	–	–	–
C=CC(=O)N1CC(NC(=O)Cn2c(C)c(-c3ccccc3N3CCOCC3)c3cc(Cl)ccc32)C1 [Example 49]	–	–	0.72 µM	–	–	7.68 µM	4.67 µM	–
C=CC(=O)N1CC(NC(=O)Cn2c(C)c(-c3ccccc3Cc3ccccc3)c3cc(Cl)ccc32)C1 [Example 56]	–	–	0.88 µM	–	–	> 100 µM	6.17 µM	4.77 µM
C=CC(=O)N1CC(NC(=O)Cn2c(C)c(-c3cnccc3C3CC3)c3cc(Cl)ccc32)C1 [Example 18]	–	–	0.97 µM	–	–	> 100 µM	1.85 µM	–
C=CC(=O)N1CC(N(C)C(=O)Cn2c(CC3CC3)c(C(=O)N3CCc4c(cccc4OC)C3)c3cc(Cl)cc(C)c32)C1 [Example 4-4, 2-(5-Chloro-2-(cyclopropylmethyl)-3-((5-methoxy-3,4-dihydro-2(1H)-isoquinolinyl)carbonyl)-7-methyl-1H-indol-1-yl)-N-methyl-N-(1-(2-propenoyl)-3-azetidinyl)acetamide]	29.3 µM	–	0.1 µM	0.18 µM	–	–	–	–
C=CC(=O)N1CC(NC(=O)Cn2c(C)c(C(=O)N3CCc4c(ccnc4OC)C3)c3cc(Cl)ccc32)C1 [Example 28]	> 100 µM	–	0.59 µM	2.63 µM	0.18 µM	–	–	–
C=CC(=O)N1CC(NC(=O)Cn2c(C)c(-c3ccccc3CN(C)C)c3cc(Cl)ccc32)C1 [Example 32]	–	–	6.05 µM	–	–	> 100 µM	2.73 µM	202 µM
C=CC(=O)N1CC(N(C)C(=O)Cn2c(C)c(C(=O)N3CCc4c(cccc4OC)C3)c3cc(Br)cc(C)c32)C1 [Example 4-5, 2-(5-Bromo-3-((5-methoxy-3,4-dihydro-2(1H)-isoquinolinyl)carbonyl)-2,7-dimethyl-1H-indol-1-yl)-N-methyl-N-(1-(2-propenoyl)-3-azetidinyl)acetamide]	> 100 µM	–	0.09 µM	0.27 µM	–	–	–	–
C=CC(=O)N1CC(NC(=O)Cn2cc(C(=O)NCCc3ccc(Cl)cc3Cl)c3cc(Br)ccc32)C1 [Example 161]	> 100 µM	–	0.99 µM	79.5 µM	0.23 µM	–	–	–
C=CC(=O)N1CC(NC(=O)Cn2c(C3CC3)c(C(=O)N3CCOC4(CCC4)C3)c3cc(Cl)cc(C)c32)C1 [Example 1-6, 2-(5-Chloro-2-cyclopropyl-7-methyl-3-(5-oxa-8-azaspiro[3.5]nonan-8-ylcarbonyl)-1H-indol-1-yl)-N-(1-(2-propenoyl)-3-azetidinyl)acetamide]	> 100 µM	–	0.72 µM	0.67 µM	–	–	–	–
C=CC(=O)N1CC(NC(=O)Cn2c(C3CC3)c(C(=O)N3CCOC(C)(C)C3)c3cc(Cl)cc(C)c32)C1 [Example 23]	> 100 µM	–	0.95 µM	2.35 µM	–	–	–	–
C=CC(=O)N1CC(NC(=O)Cn2c(C)c(C(=O)N3CCc4c(cccc4OC)C3)c3cc(Br)cc(C)c32)C1 [Example 2-1, 2-(5-Bromo-3-((5-methoxy-3,4-dihydro-2(1H)-isoquinolinyl)carbonyl)-2,7-dimethyl-1H-indol-1-yl)-N-(1-(2-propenoyl)-3-azetidinyl)acetamide]	> 100 µM	–	0.11 µM	0.3 µM	0.11 µM	–	–	–
C=CC(=O)N1CC(NC(=O)Cn2c(C)c(-c3ccccc3-c3ccccc3)c3cc(Cl)ccc32)C1 [Example 67]	–	–	0.83 µM	–	0.24 µM	> 100 µM	8.8 µM	3.9 µM
C=CC(=O)N1CC(NC(=O)Cn2c(C)c(-c3ccccc3OC(C)C)c3cc(Cl)ccc32)C1 [Example 113]	–	–	0.9 µM	–	–	> 100 µM	26.2 µM	–
